Laboratory results published in ChEMBL document CHEMBL4177635, “Discovery and structure-activity-relationship study of novel conformationally restricted indane analogues for mutant isocitric dehydrogenase 1 (IDH1) inhibitors” (Bioorg Med Chem Lett, 2017).

Tests used:
[1] = molecular target: Isocitrate dehydrogenase [NADP] cytoplasmic (Homo sapiens, UniProt O75874, R132H); experiment: Inhibition of IDH1 R132H mutant (unknown origin) using alpha-ketoglutarate as substrate after 60 mins by resazurin dye based fluorescence assay
Isocitrate dehydrogenase [NADP] cytoplasmic (Homo sapiens, UniProt O75874, R132H), sequence (O75874 2-414 R132H limits assumed): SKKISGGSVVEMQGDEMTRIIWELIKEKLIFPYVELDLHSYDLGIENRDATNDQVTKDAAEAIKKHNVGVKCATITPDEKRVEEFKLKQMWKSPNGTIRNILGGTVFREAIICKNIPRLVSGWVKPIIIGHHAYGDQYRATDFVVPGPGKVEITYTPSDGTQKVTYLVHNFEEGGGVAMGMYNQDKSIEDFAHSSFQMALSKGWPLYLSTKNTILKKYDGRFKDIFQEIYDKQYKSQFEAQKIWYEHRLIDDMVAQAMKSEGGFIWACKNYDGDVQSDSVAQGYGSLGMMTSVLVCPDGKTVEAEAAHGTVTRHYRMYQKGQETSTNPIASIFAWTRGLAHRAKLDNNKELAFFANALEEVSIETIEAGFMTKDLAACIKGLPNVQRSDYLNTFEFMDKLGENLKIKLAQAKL

Homo sapiens [2] = species: Homo sapiens; experiment: Selectivity ratio of IC50 for IDH1 (unknown origin) to IC50 for […] (unknown origin)
[3] = molecular target: Isocitrate dehydrogenase [NADP] cytoplasmic (Homo sapiens, UniProt O75874, R132C); experiment: Inhibition of IDH1 R132C mutant in human HT1080 cells assessed as reduction in 2-hydroxyglutarate production after 48 hrs by LC-MS/MS analysis; type: cell-based
Isocitrate dehydrogenase [NADP] cytoplasmic (Homo sapiens, UniProt O75874, R132C), sequence (O75874 2-414 R132C limits assumed): as the sequence (O75874 2-414 R132H limits assumed) above, with H131C counted along it

[4] = molecular target: Isocitrate dehydrogenase [NADP] cytoplasmic (Homo sapiens, UniProt O75874); experiment: Inhibition of IDH1 (unknown origin) using isocitrate as substrate after 60 mins by resazurin dye based fluorescence assay
Isocitrate dehydrogenase [NADP] cytoplasmic (Homo sapiens, UniProt O75874), sequence (O75874 whole entry): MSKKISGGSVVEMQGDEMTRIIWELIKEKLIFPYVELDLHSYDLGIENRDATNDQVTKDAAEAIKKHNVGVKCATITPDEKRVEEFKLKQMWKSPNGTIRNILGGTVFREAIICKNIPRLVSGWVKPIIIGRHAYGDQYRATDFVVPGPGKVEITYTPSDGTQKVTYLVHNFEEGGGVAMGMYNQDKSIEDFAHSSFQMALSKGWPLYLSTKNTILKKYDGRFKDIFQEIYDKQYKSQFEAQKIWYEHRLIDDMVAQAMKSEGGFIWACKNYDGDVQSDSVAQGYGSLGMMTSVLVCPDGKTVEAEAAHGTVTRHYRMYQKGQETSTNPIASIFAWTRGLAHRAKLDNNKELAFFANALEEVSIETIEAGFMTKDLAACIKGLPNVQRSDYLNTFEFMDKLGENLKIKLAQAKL

Homo sapiens [5] = species: Homo sapiens; experiment: Selectivity ratio of IC50 for IDH2 R140Q mutant (unknown origin) to IC50 for IDH2 R140Q mutant (unknown origin)
Mus musculus [6] = experiment: AUC in ICR mouse at 1 mg/kg, iv by HPLC-MS analysis; type: ADME, organism-based; conditions: in vivo
Mus musculus [7] = experiment: AUC in ICR mouse at 5 mg/kg, po by HPLC-MS analysis; type: ADME, organism-based; conditions: in vivo
[8] = Volume of distribution at steady state in ICR mouse at 1 mg/kg, iv or 5 mg/kg, po by HPLC-MS analysis; type: ADME, organism-based; conditions: in vivo, read-out: Vdss
Mus musculus [9] = experiment: Oral bioavailability in ICR mouse at 5 mg/kg by HPLC-MS analysis; type: ADME, organism-based; conditions: in vivo
[10] = Clearance in ICR mouse at 1 mg/kg, iv by HPLC-MS analysis; type: ADME, organism-based; conditions: in vivo
[11] = molecular target: Isocitrate dehydrogenase [NADP], mitochondrial (Homo sapiens, UniProt P48735, R140Q); experiment: Inhibition of IDH2 R140Q mutant (unknown origin) using alpha-ketoglutarate as substrate pretreated for 60 mins followed by substrate addition measured after 60 mins by resazurin dye based fluorescence assay
Isocitrate dehydrogenase [NADP], mitochondrial, sequence (P48735 40-452 R140Q limits assumed): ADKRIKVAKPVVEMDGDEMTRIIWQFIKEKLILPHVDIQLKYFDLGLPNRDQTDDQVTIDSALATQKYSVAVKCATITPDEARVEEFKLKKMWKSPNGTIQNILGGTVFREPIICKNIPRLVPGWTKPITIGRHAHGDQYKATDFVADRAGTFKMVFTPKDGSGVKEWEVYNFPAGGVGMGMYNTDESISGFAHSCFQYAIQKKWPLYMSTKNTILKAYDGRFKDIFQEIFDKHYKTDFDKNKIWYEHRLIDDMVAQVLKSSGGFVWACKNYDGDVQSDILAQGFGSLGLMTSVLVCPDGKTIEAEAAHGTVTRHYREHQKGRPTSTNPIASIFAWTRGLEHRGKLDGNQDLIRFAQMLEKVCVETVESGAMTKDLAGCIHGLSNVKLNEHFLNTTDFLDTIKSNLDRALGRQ

[12] = Intrinsic clearance in mouse liver microsomes assessed per g protein at 1 uM by LC-MS/MS analysis; type: ADME, microsome
[13] = Intrinsic clearance in rat liver microsomes assessed per g protein at 1 uM by LC-MS/MS analysis; type: ADME, microsome

IC50 [1] [µM]	IC50 [3] [µM]	Compound	also measured
0.172	–	N#Cc1ccnc(N2C(=O)CC[C@H]2C(=O)N(c2cc(F)cc(Cl)c2)[C@@]2(C(=O)NC3CC(F)(F)C3)CCc3ccccc32)c1	–
0.049	0.0075	N#Cc1ccnc(N2C(=O)CC[C@H]2C(=O)N(c2cccc(F)c2)[C@@]2(C(=O)NC3CC(F)(F)C3)CCc3cc(Cl)ccc32)c1	Ratio IC50 (Homo sapiens [2]): 36; IC50 [4]: 1.78 µM; Ratio IC50 (Homo sapiens [5]): > 2040; AUC (Mus musculus [6]): 834 ng·h/mL; AUC (Mus musculus [7]): 3780 ng·h/mL; Vd [8]: 1.9 L; F (Mus musculus [9]): 38%; clearance [10]: 20 mL/min/kg; IC50 [11]: > 0.1 µM
0.053	0.014	N#Cc1ccnc(N2C(=O)CC[C@H]2C(=O)N(c2cc(F)cc(F)c2)[C@@]2(C(=O)NC3CC(F)(F)C3)CCc3c(Cl)cccc32)c1	–
0.18	–	N#Cc1ccnc(N2C(=O)CC[C@H]2C(=O)N(c2cc(F)cc(F)c2)[C@@]2(C(=O)NC3CC(F)(F)C3)CCc3cccc(Cl)c32)c1	–
0.085	0.025	N#Cc1ccnc(N2C(=O)CC[C@H]2C(=O)N(c2cccc(F)c2)[C@@]2(C(=O)NC3CC(F)(F)C3)CCc3ccccc32)c1	CLH [12]: 54.1 mL/min; CLH [13]: 3.7 mL/min
0.128	–	O=C1CC[C@@H](C(=O)N(c2cc(F)cc(F)c2)[C@@]2(C(=O)NC3CC(F)(F)C3)CCc3ccccc32)N1c1cnccn1	–
0.0056	0.029	N#Cc1ccnc(N2C(=O)OC[C@H]2C(=O)N(c2cccc(F)c2)[C@@]2(C(=O)NC3CC(F)(F)C3)CCc3cccc(Cl)c32)n1	–
0.635	–	N#Cc1ccnc(N2CCC[C@H]2C(=O)N(c2cccc(F)c2)[C@@]2(C(=O)NC3CC(F)(F)C3)CCc3ccccc32)c1	–
0.058	0.019	N#Cc1ccnc(N2C(=O)OC[C@H]2C(=O)N(c2cccc(F)c2)[C@@]2(C(=O)NC3CC(F)(F)C3)CCc3ccccc32)c1	–
0.054	0.0089	N#Cc1ccnc(N2C(=O)OC[C@H]2C(=O)N(c2cc(F)cc(F)c2)[C@@]2(C(=O)NC3CC(F)(F)C3)CCc3ccccc32)c1	–
0.26	–	N#Cc1ccnc(N2C(=O)CC[C@H]2C(=O)N(c2ccccc2)[C@@]2(C(=O)NC3CC(F)(F)C3)CCc3ccccc32)c1	–
0.045	0.005	N#Cc1ccnc(N2C(=O)CC[C@H]2C(=O)N(c2cc(F)cc(F)c2)[C@@]2(C(=O)NC3CC(F)(F)C3)CCc3ccccc32)c1	Ratio IC50 (Homo sapiens [2]): 79; IC50 [4]: 3.56 µM; Ratio IC50 (Homo sapiens [5]): > 2200; AUC (Mus musculus [6]): 1984 ng·h/mL; AUC (Mus musculus [7]): 3620 ng·h/mL; Vd [8]: 1 L; F (Mus musculus [9]): 87%; clearance [10]: 8.33 mL/min/kg; IC50 [11]: > 0.1 µM
> 1	–	N#Cc1ccnc(N2C(=O)CC[C@H]2C(=O)N(c2cccc(F)c2)[C@@]2(C(=O)NC3CCOCC3)CCc3ccccc32)c1	–
2.96	–	CS(=O)(=O)c1ccnc(N2C(=O)CC[C@H]2C(=O)N(c2cc(F)cc(F)c2)[C@@]2(C(=O)NC3CC(F)(F)C3)CCc3ccccc32)c1	–
0.067	0.021	N#Cc1ccnc(N2C(=O)CC[C@H]2C(=O)N(c2cccc(F)c2)[C@@]2(C(=O)NC3CC(F)(F)C3)CCc3c(Cl)cccc32)c1	–
0.108	–	N#Cc1ccnc(N2C(=O)CC[C@H]2C(=O)N(c2cccc(F)c2)[C@@]2(C(=O)NC3CC(F)(F)C3)CCc3cc(F)ccc32)c1	–
0.255	–	N#Cc1ccnc(N2C(=O)CC[C@H]2C(=O)N(c2cccc(Cl)c2)[C@@]2(C(=O)NC3CC(F)(F)C3)CCc3ccccc32)c1	–
0.148	–	N#Cc1ccnc(N2C(=O)CC[C@H]2C(=O)N(c2cccc(F)c2F)[C@@]2(C(=O)NC3CC(F)(F)C3)CCc3ccccc32)c1	–
0.186	–	N#Cc1ccnc(N2C(=O)CC[C@H]2C(=O)N(c2ccc(Cl)c(F)c2)[C@@]2(C(=O)NC3CC(F)(F)C3)CCc3ccccc32)c1	–
0.042	0.009	N#Cc1ccnc(N2C(=O)OC[C@H]2C(=O)N(c2cccc(F)c2)[C@@]2(C(=O)NC3CC(F)(F)C3)CCc3cccc(Cl)c32)c1	–

IC50 [1] [µM]	IC50 [3] [µM]	Compound	also measured
> 1	–	N#Cc1ccnc(N2C(=O)CC[C@H]2C(=O)N(c2cccc(F)c2)[C@@]2(C(=O)Nc3ccccc3)CCc3ccccc32)c1	–
> 10	–	O=C1CC[C@@H](C(=O)N(c2cc(F)cc(F)c2)[C@@]2(C(=O)NC3CC(F)(F)C3)CCc3ccccc32)N1c1ccccn1	–
0.094	0.021	N#Cc1ccnc(N2C(=O)CC[C@H]2C(=O)N(c2cncc(F)c2)[C@@]2(C(=O)NC3CC(F)(F)C3)CCc3ccccc32)c1	–
0.037	< 0.01	N#Cc1ccnc(N2C(=O)CC[C@H]2C(=O)N(c2cccc(F)c2)[C@@]2(C(=O)NC3CCCCC3)CCc3ccccc32)c1	CLH [12]: 2359 mL/min; CLH [13]: 1145 mL/min
> 10	–	N#Cc1ccnc(N2C(=O)CC[C@@H]2C(=O)N(c2cccc(F)c2)[C@@]2(C(=O)NC3CC(F)(F)C3)CCc3ccccc32)c1	–
0.04	0.308	N#Cc1ccnc(N2C(=O)OC[C@H]2C(=O)N(c2cc(F)cc(F)c2)[C@@]2(C(=O)NC3CC(F)(F)C3)CCc3ccccc32)n1	–
0.08	0.015	N#Cc1ccnc(N2C(=O)CC[C@H]2C(=O)N(c2cccc(F)c2)[C@@]2(C(=O)NCC3CCC(F)(F)CC3)CCc3ccccc32)c1	CLH [12]: 567 mL/min; CLH [13]: 24 mL/min
0.266	–	N#Cc1ccnc(N2C(=O)CC[C@H]2C(=O)N(c2cccc(F)c2)[C@@]2(C(=O)NCC3CC3)CCc3ccccc32)c1	–
0.27	–	N#Cc1ccnc(N2C(=O)CC[C@H]2C(=O)N(c2cncc(F)c2)[C@@]2(C(=O)NC3CC(F)(F)C3)Cc3ccccc32)c1	–
0.022	0.042	N#Cc1ccnc(N2C(=O)CC[C@H]2C(=O)N(c2cccc(F)c2)[C@@]2(C(=O)NC3CC(F)(F)C3)CCc3cccc(Cl)c32)n1	–
0.095	–	N#Cc1ccnc(N2C(=O)CC[C@H]2C(=O)N(c2ccc(F)c(F)c2)[C@@]2(C(=O)NC3CC(F)(F)C3)CCc3ccccc32)c1	–
0.068	0.027	N#Cc1ccnc(N2C(=O)CC[C@H]2C(=O)N(c2cccc(F)c2)[C@@]2(C(=O)NC3CC(F)(F)C3)CCc3c(F)cccc32)c1	–
0.138	–	N#Cc1ccnc(N2C(=O)CC[C@H]2C(=O)N(c2cccc(F)c2)[C@@]2(C(=O)NC3CC(F)(F)C3)CCc3ccc(F)cc32)c1	–
0.051	0.052	N#Cc1ccnc(N2C(=O)CC[C@H]2C(=O)N(c2cccc(F)c2)[C@@]2(C(=O)NC3CC(F)(F)C3)CCc3cccc(F)c32)c1	–
0.338	–	N#Cc1ccnc(N2C(=O)CC[C@H]2C(=O)N(c2cc(F)ccc2F)[C@@]2(C(=O)NC3CC(F)(F)C3)CCc3ccccc32)c1	–
2.61	–	N#Cc1cccc(N2C(=O)CC[C@H]2C(=O)N(c2cc(F)cc(F)c2)[C@@]2(C(=O)NC3CC(F)(F)C3)CCc3ccccc32)c1	–
0.275	–	N#Cc1ccnc(N2C(=O)CC[C@H]2C(=O)N(c2cncc(F)c2)[C@@]2(C(=O)NC3CC(F)(F)C3)CCCc3ccccc32)c1	–
> 10	–	COc1ccnc(N2C(=O)CC[C@H]2C(=O)N(c2cc(F)cc(F)c2)[C@@]2(C(=O)NC3CC(F)(F)C3)CCc3ccccc32)c1	–
0.022	0.0149	N#Cc1ccnc(N2C(=O)CC[C@H]2C(=O)N(c2cc(F)cc(F)c2)[C@@]2(C(=O)NC3CC(F)(F)C3)CCc3ccccc32)n1	–
